Test results: patent US20090186839A1, “Model for studying the role of genes in chemoresistance” (Cold Spring Harbor Laboratory, priority 2003, published 2009)
Like-named read-outs stand apart in the source and are kept apart here.

How the values were obtained:
[1] = test system: Eμ-myc/PTEN+/− tumors; assay: In vivo chemotherapy of mice bearing PTEN+/− lymphomas; design: species or system mouse; settings: for reversal of DXR resistance / sensitization to DXR: RAP 4 mg/kg, silvestrol 0.2 mg/kg daily 5 days i.p.
Method: Primary tumors arising in Eμ-myc/PTEN+/− and Ep-myc/PTEN+/− mice were harvested and injected into C57BL/6 (non-transgenic) mice. Upon tumor formation of palpable secondary tumors, mice were treated with a single i.p. administration of drug. The treatment schedule included an injection with either DXR ([…] in 0.9% saline), CTX (300 mg/kg in 0.9% saline), RAP (4 mg/kg in 0.9% H2O with 5% PEG/TWEEN), or a combination thereof (d1: DXR or CTX, d2: DXR or CTX and RAP, d3-5: DXR pr CTX). Mice were then palpated twice weekly for disappearance or recurrence of tumors. Data are presented as Kaplan-Meier plots in FIG. 19, and show the tumor free survival/time to relapse. Time to relapse for mice that were never tumor free was scored as ‘0’ days. […] The bottom panel has an equivalent analysis for treatment with CTX, RAP, and RAP+CTX combination.
(§1) Primary tumors arising in PTEN+/−Eμ-Myc mice were harvested and a total of 2×10^6 secondary lymphoma cells were injected into the tail veins of 6-8 week old female C57BL/6 (non-transgenic) mice. Upon tumor formation of palpable secondary tumors, mice were treated with i.p. administration of drug. The treatment schedule included an injection with DXR (once at 10 mg/kg), RAP (4 mg/kg daily for 5 days), or silvestrol (0.2 mg/kg daily for 5 days). RAP, DXR, and silvestrol were diluted in 5.2% PEG400/5.2% Tween 80 immediately prior to i.p. injection.
The ability of rocaglates to work in synergistic combination with other cytotoxic agents has not previously been tested. Silvestrol was therefore tested in combination with DXR, where silvestrol or RAP were administered once daily for 5 consecutive days, with DXR administered on day 2. Mice were then palpated twice weekly for the disappearance or recurrence of tumors.
Data are presented as Kaplan-Meier plots using the log-rank (Mantel-Cox) test for statistical significance (SigmaStat software) in FIG. 28, and show the tumor free survival/time to relapse. Time to relapse for mice that were never tumor free was scored as ‘0’ days. […]

[2] = test system: Eμ-myc/Akt lymphomas; assay: In vivo chemotherapy of mice bearing Akt lymphomas; design: species or system mouse
Text: (§3) Tumor cells were transplanted from the Akt-expressing tumors and from control tumors (Eμ-myc, arf^−/−, p53^+/+) into syngeneic, non-transgenic 6-10 week old C57BL/6 mice by tail vein injection [10^6 viable lymphoma cells in phosphate-buffered saline (PBS)] and recipient mice were monitored for tumor formation twice a week by palpation of the pre-scapular and cervical lymph-nodes. […] Following treatments, mice were monitored for immediate response and time to relapse by lymph node palpation and by blood smears (by tail artery bleeding) stained according to a modified Wright's protocol using the LeukoStat kit (Fisher Scientific, Pittsburgh, Pa.). The data were statistically evaluated.

[3] = test system: Eμ-Myc/eIF4E lymphomas; assay: In vivo chemotherapy of mice bearing eIF4E lymphomas; design: species or system mouse; settings: for animals that had developed terminal lymphoma / reversal of DXR resistance / sensitization to DXR: Eμ-Myc/eIF4E tumors, silvestrol 0.2 mg/kg daily 5 days i.p.; for animals that had developed terminal lymphoma: by the 40 day time point, DXR once 10 mg/kg
Text: A ‘complete remission’ (CR) was defined as absence of any palpable tumor and the absence of leukemia, as examined by blood smears. ‘Tumor free survival’ was defined as the time between treatment and reappearance of a well-palpable lymphoma (Schmitt, C. A., et al., “Genetic analysis of chemoresistance in primary murine lymphomas,” Nat. Med. 6: 1029-1035 (2000)). ‘Overall survival’ was defined as the time between treatment and progression to a terminal stage at which the animals were sacrificed. Tumor free and overall survival data were analyzed in the Kaplan-Meier format using the log-rank (Mantel-Cox) test for statistical significance. Whole body fluorescence imaging of living animals was performed as described (Schmitt, C. A., et al., “Dissecting p53 tumor suppressor functions in vivo,” Cancer Cell 1: 289-298 (2002) and Yang, M., et al., “Whole-body optical imaging of green fluorescent protein-expressing tumors and metastases.” Proc. Natl. Acad. Sci. USA 97: 1206-1211 (2000)).
Doxorubicin (Sigma) and cyclophosphamide (Sigma) were dissolved in saline. In treatment studies, control lymphomas were ARF-null tumors arising in an Eμ-myc/ARF−/− background (Schmitt, C. A., et al., “INK4a/ARF mutations accelerate lymphomagenesis and promote chemoresistance by disabling p53,” Genes Dev. 13: 2670-2677 (1999)).
as §1, with “Eμ-Myc/eIF4E” for “PTEN+/−Eμ-Myc”, “mg/kg),” for “mg/kg), RAP (4 mg/kg daily for 5 days), or”, “days) or various combinations. DXR” for “days). RAP, DXR,”, “injection. In combination studies, silvestrol was administered once daily for 5 consecutive days, with DXR administered on day 2. Mice were then palpated regularly and monitored for the disappearance or recurrence of tumors.” for “injection.”
Data are presented as Kaplan-Meier plots using the log-rank (Mantel-Cox) test for statistical significance (SigmaStat software) in FIG. 29, showing the tumor free survival/time to relapse, and FIG. 30, showing the overall survival/time. Time to relapse for mice that were never tumor free was scored as ‘0’ days. Tumor free survival was defined as the time between treatment and reappearance of a palpable lymphoma. Overall survival was defined as the time between treatment and progression to a terminal stage at which the animals were sacrificed. […] With either compound alone, approximately 80% of the animals had developed terminal lymphoma by the 40 day time point. With a combination treatment of silvestrol and DXR, less than 30% of the animals had developed terminal lymphoma by the end test point, well over 60 days.

[4] = test system: Jurkat cells; assay: Apoptosis / living cells by flow cytometry (Annexin V, propidium iodide); format: cell-based; settings: 13 hr exposure, concentration not given
Method: Jurkat cells were incubated with the indicated silvestrol concentrations for 13 h after which time the rate of [^35S]-methionine incorporation or the percentage of living cells was measured. [^35S]-methionine was added 10 minutes before the end of the incubation period and the rate of incorporation is expressed relative to vehicle (MeOH) treated cells. Results are the average of two experiments with the error of the mean shown. The percentage of living cells was determined by flow cytometry following staining of the cells with Annexin V and propidium iodide. […]
(§2) The ability of rocaglates to induce apoptosis and inhibit protein synthesis was investigated. […] Jurkat cells were exposed to silvestrol or FA and translation inhibition and apoptosis induction were monitored. Translation initiation was measured as the inhibition of [^35S]-methionine incorporation into proteins in a dose-dependent manner. Apoptosis induction was measured as the percentage of tagged living cells measured by flow cytometry and expressed relative to vehicle treated cells.
Jurkat cells were incubated with the indicated silvestrol concentrations for 13 h after which time the rate of [^35S]-methionine incorporation or the percentage of living cells was measured. [^35S]-methionine was added 10 min. before the end of the incubation period and the rate of incorporation is measured relative to vehicle (MeOH) treated cells. […]

[5] = biological target: eIF4A (Homo sapiens, UniProt P60842); assay: Cross-linking experiments, eIF4A binding to mRNA; format: biochemical; settings: data not shown
Text: Inhibition of translation initiation induces apoptosis (Li et al., 2002, Mol. Cell. Biol. 22, 2853-2861; Polunovsky et al., 2000, J. Biol. Chem. 275, 24776-24780), although the precise mechanism by which this event is triggered is not fully understood. One hypothesis is that changes in the levels or activity of eIF4F mediate the translational regulation of specific genes involved in survival and apoptosis. Gene specific translational control is thought to be mediated by the amount of secondary structure within the 5′ untranslated regions of mRNAs which dictates the eIF4Ac-requirement for ribosome recruitment (Svitkin et al., 2001, RNA 7, 382-394).

[6] = test system: HeLa cells; assay: [35S]-methionine incorporation into proteins (translation inhibition), 1 h incubation; format: cell-based; settings: read-out: IC50, inhibition of [35S]-methionine incorporation into proteins
Method: Results are the average of three experiments with standard error of the mean shown.
as §2
For translation inhibition experiments, HeLa cells were incubated for 1 h with 10 μM anisomycin, 5 μM of the peptide FMRFA, 0.4 μM silvestrol, or vehicle (MeOH). Cells were then washed with PBS, and incubated with media lacking compound for the indicated times. Ten minutes before harvesting, [^35S]-methionine was added to the culture. The rate of [^35S]-methionine incorporation into TCA-insoluble material was measured and was expressed relative to vehicle (MeOH) treated cells.

[7] = test system: Jurkat cells; assay: [35S]-methionine incorporation rate after 13 h silvestrol; format: cell-based; settings: Homo sapiens, 13 h incubation, read-out: IC50, inhibition of protein synthesis
Method: Jurkat cells were incubated with the indicated silvestrol concentrations for 13 h after which time the rate of [^35S]-methionine incorporation or the percentage of living cells was measured. [^35S]-methionine was added 10 minutes before the end of the incubation period and the rate of incorporation is expressed relative to vehicle (MeOH) treated cells. Results are the average of two experiments with the error of the mean shown. The percentage of living cells was determined by flow cytometry following staining of the cells with Annexin V and propidium iodide. The percentage of living cells is expressed relative to vehicle (MeOH) treated and the results are the average of three experiments with the error of the mean shown.
Jurkat cells were incubated with the indicated silvestrol concentrations for 13 h after which time the rate of [^35S]-methionine incorporation or the percentage of living cells was measured. [^35S]-methionine was added 10 min. before the end of the incubation period and the rate of incorporation is measured relative to vehicle (MeOH) treated cells. The percentage of living cells was determined by flow cytometry following staining of the cells with Annexin V and propidium iodide. Silvestrol induced apoptosis in 50% of Jurkat cells following 13 hr exposure (FIG. 27). […]

[8] = test system: Eμ-myc/ARF−/− control lymphomas; assay: In vivo chemotherapy of mice bearing control (ARF-null) lymphomas; design: species or system mouse; settings: CTX 300 mg/kg i.p.
Text: as §3
A ‘complete remission’ (CR) was defined as absence of any palpable tumor and the absence of leukemia, as examined by blood smears. ‘Tumor free survival’ was defined as the time between treatment and reappearance of a well-palpable lymphoma (Schmitt, C. A., et al., “Genetic analysis of chemoresistance in primary murine lymphomas,” Nat. Med. 6: 1029-1035 (2000)). ‘Overall survival’ was defined as the time between treatment and progression to a terminal stage at which the animals were sacrificed. Tumor free and overall survival data were analyzed in the Kaplan-Meier format using the log-rank (Mantel-Cox) test for statistical significance. […]

Sequence of eIF4A (P60842 whole entry, species assumed): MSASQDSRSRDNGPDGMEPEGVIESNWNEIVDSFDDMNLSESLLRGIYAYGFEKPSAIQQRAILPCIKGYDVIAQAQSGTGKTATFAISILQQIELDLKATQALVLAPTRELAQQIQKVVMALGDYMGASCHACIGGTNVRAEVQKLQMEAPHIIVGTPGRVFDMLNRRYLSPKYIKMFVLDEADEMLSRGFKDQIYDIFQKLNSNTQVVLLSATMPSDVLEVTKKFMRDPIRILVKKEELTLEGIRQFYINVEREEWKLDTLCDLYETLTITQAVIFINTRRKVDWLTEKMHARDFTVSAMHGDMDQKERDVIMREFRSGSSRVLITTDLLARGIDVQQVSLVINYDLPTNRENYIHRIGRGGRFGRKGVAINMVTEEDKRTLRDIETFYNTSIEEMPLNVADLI

SMILES: COc1cccc2c1C(=O)c1c(O)c3c(c(O)c1C2=O)C[C@@](O)(C(=O)CO)C[C@@H]3O[C@H]1C[C@H](N)[C@H](O)[C@H](C)O1 [DXR, doxorubicin]
- tumor response to therapy ([1]; DXR): resistant to DXR
- tumor free and overall survival relative to control lymphomas ([2]; Akt lymphomas, DXR 10 mg/kg i.p.): substantial reductions in tumor free and overall survival
- whole body GFP imaging of tumors ([2]; Akt-GFP secondary tumors, day 21 post treatment): sizable tumors at several sites
- animals that had developed terminal lymphoma [3]: approximately 80%
- tumor response to therapy ([3]; eIF4E lymphomas): highly resistant to DXR therapy

SMILES: COC(=O)[C@H]1[C@@H](O)[C@@]2(O)c3c(OC)cc(O[C@@H]4O[C@@H]([C@H](O)CO)CO[C@H]4OC)cc3O[C@@]2(c2ccc(OC)cc2)[C@@H]1c1ccccc1 [silvestrol]
- cells in which apoptosis was induced [4]: 50%
- reversal of DXR resistance / sensitization to DXR [1]: reverse this drug resistance
- reversal of DXR resistance / sensitization to DXR ([1]; listed as Silvestrol): sensitizes PTEN^+/−Eμ-Myc tumors to the effects of doxorubicin
- effect on ability of eIF4A to bind mRNA [5]: stimulate the ability of eIF4A to bind mRNA
- animals that had developed terminal lymphoma [3]: approximately 80%
- reversal of DXR resistance / sensitization to DXR [3]: reversed this drug resistance
- reversal of DXR resistance / sensitization to DXR ([3]; listed as Silvestrol): sensitizes Eμ-Myc/eIF4E tumors to the effects of DXR
- IC50 ([6]; Homo sapiens, HeLa, 1 h): 20 nM
- IC50 [7]: 1 nM

SMILES: COC(=O)[C@H]1[C@@H](OC=O)[C@@]2(O)c3c(OC)cc(OC)cc3O[C@@]2(c2ccc(OC)cc2)[C@@H]1c1ccccc1 [FA, 1-O-formylaglafoline]
- effect on ability of eIF4A to bind mRNA [5]: stimulate the ability of eIF4A to bind mRNA
- IC50 ([6]; 1 h incubation): ~100 nM

SMILES: O=P1(N(CCCl)CCCl)NCCCO1 (centres unmarked) [CTX, cyclophosphamide]
- duration of remissions ([2]; Akt lymphomas, CTX 300 mg/kg i.p.): less than 20 days
- mice achieving remissions lasting more than 60 days ([2]; Akt lymphomas, CTX 300 mg/kg, RAP 4 mg/kg x 5 d): none
- complete remission [8]: invariably entered a complete remission
- mice remaining tumor free after 100 days [8]: > 50%
